Literature values as cited in US10219515B2, “Agrochemical adjuvant containing 2-oxo-1,3-dioxolan-4 carboxylates” (BASF SE, priority 2014, dated 2019).
Where two headings read alike, the source gives them in different places.

Q: With `O=C(O)CNCP(=O)(O)O` [glyphosate] as the compound, how does the “acid dissociation constant pKa” value (amine) read?
A: The value was ~11.0.

Q: And the “acid dissociation constant pKa” value (carboxylic acid)?
A: Its value is ~2.3.

Q: And the “acid dissociation constant pKa” value (first phosphonic acid)?
A: Its value is ~0.8.

Q: And the “acid dissociation constant pKa” value (second phosphonic acid)?
A: The value was ~6.0.
